Experimental data published in PMC2074348, “Preclinical in vivo efficacy of two 9-dihydrotaxane analogues against human and murine tumours” (British Journal of Cancer, 1996).
≈ marks a conversion by molar mass, not a printed value. Where two headings read alike, the source gives them in different places.

How the values were obtained:
murine M109 solid tumour = test: In vivo efficacy vs subcutaneous M109 solid tumour; conditions: for Days (1.0 g): days to reach mean tumour mass = 1.0 g ± s.d. / Delay (1.0 g): delay to reach mean tumour mass = 1.0 g, compared with untreated / Per cent cures (mice with no palpable tumours, day 60) / Per cent toxicity / TWI (per cent tumour weight inhibition when untreated control mean = 1.0 g): q.d., i.p., days 1, 5, 9 after inoculation, s.c. tumour, BDF1 mice
P388 = test: In vitro tumour cell cytotoxicity, colorimetric MTT assay, 72 h; format: cell-based, murine; conditions: 72 h exposure
B16F10 = test: as above; format: cell-based, murine; conditions: 72 h exposure
A549 = test: as above; format: cell-based, human; conditions: 72 h exposure
[1] = test system: murine B16F10 melanoma ascites tumour; test: In vivo efficacy vs i.p. B16F10 melanoma ascites tumour
[2] = test system: human MX-1 xenograft solid tumour; conditions: for Delay (1.0 g) (footnote: delay to reach mean tumour mass = 0.5 g, compared with untreated) / Per cent cures (mice with no palpable tumours, day 60) / Per cent toxicity / TWI (per cent tumour weight inhibition when untreated control mean = 0.5 g): q.d., i.p., days 1-5 after inoculation, s.c. xenograft, nude mice
[3] = Pharmacokinetics following i.p. dosing in mice
HT-29 = test: In vitro tumour cell cytotoxicity, colorimetric MTT assay, 72 h; format: cell-based, human; conditions: 72 h exposure
[4] = test system: A549, HT-29, B16F10 and P388 tumour cells; test: In vitro cytotoxicity across the four tumour cell lines, compared with paclitaxel; format: cell-based; conditions: human and murine tumour cells
[5] = at non-toxic doses, i.p. once daily for 5 consecutive days
[6] = dose 25 mg kg-1 per day, q.d., i.p., days 1-5 after inoculation, BDF1 mice
[7] = dose 50 mg kg-1 per day, q.d., i.p., days 1-5 after inoculation, BDF1 mice
[8] = dose 100 mg kg-1 per day, q.d., i.p., days 1-5 after inoculation, BDF1 mice
[9] = once daily on days 1-5 after inoculation
[10] = 20 mg kg-1 i.p., male CD-1 mice, plasma (Table VI)

Question: With `CC(=O)O[C@@H]1C2=C(C)[C@@H](OC(=O)[C@H](O)[C@@H](NC(=O)c3ccccc3)c3ccccc3)C[C@@](O)([C@@H](OC(=O)c3ccccc3)[C@@H]3[C@]4(OC(C)=O)CO[C@@H]4C[C@H](O)[C@@]3(C)[C@H]1O)C2(C)C` [Compound A-85576, 9-dihydrotaxol] as the compound, how does the “Days (1.0 g): days to reach mean tumour mass = 1.0 g ± s.d.” value (murine M109 solid tumour; dose 25 mg kg-1 per day) read?
Answer: 13.6+2.3 days

Question: What about the “Delay (1.0 g): delay to reach mean tumour mass = 1.0 g, compared with untreated” value (shortened to “Delay (1.0 g): delay … compared with untreated”) (murine M109 solid tumour; dose 25 mg kg-1 per day) of the same compound?
Answer: 1.6 days

Question: What about the “Per cent cures (mice with no palpable tumours, day 60)” value (murine M109 solid tumour; dose 25 mg kg-1 per day) of the same compound?
Answer: 0%

Question: And the Per cent toxicity (murine M109 solid tumour; dose 25 mg kg-1 per day)?
Answer: 0%

Question: What about the “TWI (per cent tumour weight inhibition when untreated control mean = 1.0 g)” value (murine M109 solid tumour; dose 25 mg kg-1 per day) of the same compound?
Answer: 34%

Question: And the “Days (1.0 g): days to reach mean tumour mass = 1.0 g ± s.d.” value (murine M109 solid tumour; dose 50 mg kg-1 per day)?
Answer: 14.1+3.2 days

Question: And the “Delay (1.0 g): delay … compared with untreated” value (murine M109 solid tumour; dose 50 mg kg-1 per day)?
Answer: 2.1 days

Question: What about the “Per cent cures (mice with no palpable tumours, day 60)” value (murine M109 solid tumour; dose 50 mg kg-1 per day) of the same compound?
Answer: 0%

Question: And the Per cent toxicity (murine M109 solid tumour; dose 50 mg kg-1 per day)?
Answer: 0%

Question: What about the “TWI (per cent tumour weight inhibition when untreated control mean = 1.0 g)” value (murine M109 solid tumour; dose 50 mg kg-1 per day) of the same compound?
Answer: 46%

Question: And the “Delay (1.0 g): delay … compared with untreated” value (murine M109 solid tumour; dose 100 mg kg-1 per day)?
Answer: 10.5 days

Question: What about the “Per cent cures (mice with no palpable tumours, day 60)” value (murine M109 solid tumour; dose 100 mg kg-1 per day) of the same compound?
Answer: 0%

Question: And the Per cent toxicity (murine M109 solid tumour; dose 100 mg kg-1 per day)?
Answer: 0%

Question: And the “TWI (per cent tumour weight inhibition when untreated control mean = 1.0 g)” value (murine M109 solid tumour; dose 100 mg kg-1 per day)?
Answer: 90%

Question: And the Optimal dose (murine M109 solid tumour; i.p. every fourth day for three total injections (days 1, 5, 9 after inoculation))?
Answer: 100 mg kg-1 injection

Question: What about the “Delay in solid tumour growth to 1 g” value (murine M109 solid tumour; paclitaxel at a non-toxic dose) of the same compound?
Answer: 10.5 days

Question: And the IC50 (P388)?
Answer: 53.0 ng/mL (≈ 0.0619 µM)

Question: And the IC50 (B16F10)?
Answer: 25 ng/mL (≈ 0.0292 µM)

Question: And the IC50 (A549)?
Answer: 19.0 ng/mL (≈ 0.0222 µM)

Question: And the “Cure rate at optimal non-toxic dose” value [1, 5]?
Answer: 0%

Question: And the “Optimal increase in life span (ILS)” value [1, 5]?
Answer: 39%

Question: What about the “%ILS (group mean increase in lifespan)” value [1, 6] of the same compound?
Answer: 21%

Question: What about the “MST (mean survival time ± s.d.)” value [1, 6] of the same compound?
Answer: 23.9 ± 4.3 days

Question: What about the “Per cent cures (mice alive 60 days after inoculation)” value [1, 6] of the same compound?
Answer: 0%

Question: What about the “Per cent toxicity (mice with premature death)” value [1, 6] of the same compound?
Answer: 0%

Question: What about the “%ILS (group mean increase in lifespan)” value [1, 7] of the same compound?
Answer: 39%

Question: And the “Per cent cures (mice alive 60 days after inoculation)” value [1, 7]?
Answer: 0%

Question: And the “Per cent toxicity (mice with premature death)” value [1, 7]?
Answer: 0%

Question: What about the “%ILS (group mean increase in lifespan)” value [1, 8] of the same compound?
Answer: 46%

Question: And the “Per cent cures (mice alive 60 days after inoculation)” value [1, 8]?
Answer: 0%

Question: What about the “Per cent toxicity (mice with premature death)” value [1, 8] of the same compound?
Answer: 20%

Question: What about the Optimal dose ([1]; i.p. once daily for 5 consecutive days) of the same compound?
Answer: 50 mg/kg/day

Question: What about the “Efficacy against murine B16 ascites tumour compared with paclitaxel” value ([1]; mouse, in vivo) of the same compound?
Answer: less effective

Question: And the “Delay (1.0 g) (footnote: delay to reach mean tumour mass = 0.5 g, compared with untreated)” value ([2]; dose 12.5 mg kg-1 per day)?
Answer: 1.6 days

Question: And the “Per cent cures (mice with no palpable tumours, day 60)” value ([2]; dose 12.5 mg kg-1 per day)?
Answer: 0%

Question: And the Per cent toxicity ([2]; dose 12.5 mg kg-1 per day)?
Answer: 0%

Question: What about the “TWI (per cent tumour weight inhibition when untreated control mean = 0.5 g)” value ([2]; dose 12.5 mg kg-1 per day) of the same compound?
Answer: 31%

Question: What about the “Delay (1.0 g) (footnote: delay to reach mean tumour mass = 0.5 g, compared with untreated)” value ([2]; dose 25 mg kg-1 per day) of the same compound?
Answer: 5.9 days

Question: What about the “Per cent cures (mice with no palpable tumours, day 60)” value ([2]; dose 25 mg kg-1 per day) of the same compound?
Answer: 0%

Question: And the Per cent toxicity ([2]; dose 25 mg kg-1 per day)?
Answer: 0%

Question: What about the “TWI (per cent tumour weight inhibition when untreated control mean = 0.5 g)” value ([2]; dose 25 mg kg-1 per day) of the same compound?
Answer: 65%

Question: And the “Delay (1.0 g) (footnote: delay to reach mean tumour mass = 0.5 g, compared with untreated)” value ([2]; dose 50 mg kg-1 per day)?
Answer: 12.4 days

Question: What about the Per cent toxicity ([2]; dose 50 mg kg-1 per day) of the same compound?
Answer: 0%

Question: And the “TWI (per cent tumour weight inhibition when untreated control mean = 0.5 g)” value ([2]; dose 50 mg kg-1 per day)?
Answer: 94%

Question: And the “Delay (1.0 g) (footnote: delay to reach mean tumour mass = 0.5 g, compared with untreated)” value ([2]; dose 100 mg kg-1 per day)?
Answer: 21.1 days

Question: What about the “Per cent cures (mice with no palpable tumours, day 60)” value ([2]; dose 100 mg kg-1 per day) of the same compound?
Answer: 60%

Question: And the Per cent toxicity ([2]; dose 100 mg kg-1 per day)?
Answer: 0%

Question: What about the “TWI (per cent tumour weight inhibition when untreated control mean = 0.5 g)” value ([2]; dose 100 mg kg-1 per day) of the same compound?
Answer: 98%

Question: And the Cure rate [2, 9]?
Answer: 60%

Question: What about the “Delay in tumour growth compared with untreated controls” value [2, 9] of the same compound?
Answer: 21 days

Question: And the t1/2 ([3]; 20 mg kg-1 i.p., male CD-1 mice, plasma)?
Answer: 1.9 h

Question: And the Cmax [3, 10]?
Answer: 40.32 ig ml-1

Question: And the Tmax [3, 10]?
Answer: 34.8 min

Question: What about the AUC ([3]; 20 mg kg-1 i.p., male CD-1 mice, plasma, 0-12 h, trapezoidal (Table VI)) of the same compound?
Answer: 75.62 ig per h ml-1

Question: And the “AUC value (rounded)” value ([3]; 20 mg kg-1 i.p., mice, plasma)?
Answer: over 75 jg h-1 ml-1

Question: What about the “Cmax (rounded)” value ([3]; 20 mg kg-1 i.p., mice, plasma) of the same compound?
Answer: 40 jg ml-1

Question: What about the “Serum concentrations compared with paclitaxel” value ([3]; at equal dosages) of the same compound?
Answer: greater than paclitaxel

Question: What about the IC50 (HT-29) of the same compound?
Answer: 8.0 ng/mL (≈ 0.00935 µM)

Question: And the “In vitro potency compared with paclitaxel” value [4]?
Answer: generally less than that of paclitaxel
